Experimental data as given in publication PMC5785531, “Pharmacokinetic parameters explain the therapeutic activity of antimicrobial agents in a silkworm infection model” (Scientific Reports, 2018).
Converted amounts (≈) assume the structure as drawn.

Experiments:
S. aureus MSSA1 = test: Silkworm systemic infection model, therapeutic activity (ED50); format: in vivo, Staphylococcus aureus; details: for ED50: Staphylococcus aureus, silkworms infected with S. aureus MSSA1 (Fig. 2), read-out: ED50
From the text: We synthesized 50 compounds (Fig. 2, Supplementary Table 1) using the Steglich esterification scheme[31] in the presence of a […], 1-ethyl-3-(3-dimethylaminopropyl)-carbodiimide hydrochloride (Fig. 1b). Antimicrobial activities of the compounds were examined by determining the MIC against S. aureus MRSA4 in vitro; therapeutic activities were examined using a systemic infection model of silkworms infected with S. aureus MSSA1.
A total of 108,373 compounds from the chemical library of the Drug Discovery Initiative at the University of Tokyo were screened for antibacterial activity against S. aureus strain MRSA4 as previously reported. Those compounds that inhibited the growth of MRSA4 at 100 µM were further evaluated for their therapeutic effects in silkworms infected with S. aureus strain MSSA1 according to previously reported studies[17],[21].

S. aureus MRSA4 = test: MIC against S. aureus MRSA4 in vitro (broth dilution); format: cell-based; details: Staphylococcus aureus; S. aureus MRSA4 in vitro; SAR series (Fig. 2)
From the text: We synthesized 50 compounds (Fig. 2, Supplementary Table 1) using the Steglich esterification scheme[31] in the presence of a […], 1-ethyl-3-(3-dimethylaminopropyl)-carbodiimide hydrochloride (Fig. 1b). Antimicrobial activities of the compounds were examined by determining the MIC against S. aureus MRSA4 in vitro; therapeutic activities were examined using a systemic infection model of silkworms infected with S. aureus MSSA1. […]
Antimicrobial activity was assessed by determining the MIC by broth dilution assay according to our previous reports[21],[35],[36] as per the Clinical and Laboratory Standards Institute[37]. Briefly, serial dilutions of compound 5, compound 7, and positive controls were prepared in cation-adjusted Mueller-Hinton Broth (MHB, Difco, Franklin Lakes, NJ, USA), 100 µl of which was dispensed into each well of a round-bottomed 96-well plate. The final concentrations in the well ranged from 128 µg/ml to 0.0625 µg/ml. Bacteria were grown at 37 °C overnight on either Luria Bertani (tryptone 10 g/l, yeast extract 5 g/l, NaCl 10 g/l) or Tryptic Soy Broth (TSB, Difco) agar plates or sheep blood agar plates (Eiken Chemical Co. Ltd., Tokyo, Japan). Bacterial inoculum was prepared by direct suspension of the colonies in 0.9% saline, and adjusted to obtain a turbidity equivalent to a 0.5 McFarland standard using a spectrophotometer UV-1280 (Shimadzu Corp., Kyoto, Japan). The suspension was then diluted 1:20 in cation-adjusted MHB (Difco), and 10 µl of it was inoculated into each well of previously prepared 96-well plates containing compounds to obtain approximately 5 × 10^4 colony forming units/well and incubated at 37 °C for 20 h. […] Vancomycin (Wako Pure Chemicals) or norfloxacin (Sigma Aldrich, St Louis, MO, USA) were used as positive controls. Each plate contained a growth control well and a vehicle control well. The MIC was determined as the minimum concentration that inhibited the growth of the bacteria.

Row | SMILES | survival of the S. aureus-infected silkworms (S. aureus MSSA1; S. aureus-infected silkworms) | ED50 (S. aureus MSSA1) [mg/kg] | MIC (S. aureus MRSA4) [µg/mL]
1 | O=C(OCc1cc(Cl)cc(Cl)c1)c1ccc([N+](=O)[O-])o1 [compound 1] | slightly prolonged the survival | > 95 | 12.5 (≈ 39.5 µM)
2 | O=C(OCc1cc(Cl)cc(Cl)c1)c1ccco1 [compound 2] |  |  | > 200
3 | O=C(OCc1cccc(Cl)c1)c1ccc([N+](=O)[O-])o1 [compound 3] |  | > 87 | 12.5 (≈ 44.4 µM)
4 | O=C(OCc1ccccc1)c1ccc([N+](=O)[O-])o1 [compound 4] |  | > 95 | 12.5 (≈ 50.6 µM)
5 | O=C(OCc1cccc(Cl)c1)c1ccc([N+](=O)[O-])s1 [compound 6] |  | 65 | 0.5 (≈ 1.68 µM)
6 | O=C(OCc1ccc2ccccc2c1)c1ccc([N+](=O)[O-])o1 [compound 8] |  | > 100 | > 200
7 | O=C(OCc1ccc2ccccc2c1)c1ccc([N+](=O)[O-])s1 [compound 9] |  | > 105 | 1.6 (≈ 5.11 µM)
8 | O=C(NCc1cccc(Cl)c1)c1ccc([N+](=O)[O-])o1 [compound 10] |  | > 105 | 3.1 (≈ 11 µM)
9 | O=C(NCc1cccc(Cl)c1)c1ccc([N+](=O)[O-])s1 [compound 11] |  | > 170 | 6.3 (≈ 21.2 µM)
10 | CN(Cc1ccccc1)C(=O)c1ccc([N+](=O)[O-])s1 [compound 14] |  | > 210 | 50 (≈ 181 µM)
11 | O=C(COc1cc(Cl)cc(Cl)c1)c1ccc([N+](=O)[O-])o1 [compound 15] |  | > 105 | 50 (≈ 158 µM)
12 | O=C(COc1cc(Cl)cc(Cl)c1)c1ccc([N+](=O)[O-])s1 [compound 16] |  | > 220 | 50 (≈ 151 µM)
13 | O=C(OCc1cccc(Br)c1)c1ccc([N+](=O)[O-])o1 [compound 17] |  | > 220 | 12.5 (≈ 38.3 µM)
14 | O=C(OCc1cccc(Br)c1)c1ccc([N+](=O)[O-])s1 [compound 18] |  | 53 | 1.6 (≈ 4.68 µM)
15 | O=C(OCc1cccc(F)c1)c1ccc([N+](=O)[O-])s1 [compound 19] |  | > 87 | 0.4 (≈ 1.42 µM)
16 | O=C(OCc1cc(F)cc(Cl)c1)c1ccc([N+](=O)[O-])s1 [compound 20] |  | 17 | 0.4 (≈ 1.27 µM)
17 | O=C(OCc1cc(Br)cc(Br)c1)c1ccc([N+](=O)[O-])s1 [compound 21] |  | > 100 | 6.3 (≈ 15 µM)
18 | O=C(OCc1c(Br)c(Br)c(Br)c(Br)c1Br)c1ccc([N+](=O)[O-])s1 [compound 22] |  |  | > 200
19 | O=Cc1ccc(C(=O)OCc2cc(Cl)cc(Cl)c2)s1 [compound 23] |  | > 100 | 25 (≈ 79.3 µM)
20 | O=Cc1ccc(C(=O)OCc2cc(Br)cc(Br)c2)s1 [compound 24] |  | > 100 | 25 (≈ 61.9 µM)
21 | O=Cc1ccc(C(=O)OCc2cc(F)cc(Cl)c2)s1 [compound 25] |  | > 100 | 50 (≈ 167 µM)
22 | O=C(OCc1cc(Cl)cc(Cl)c1)c1ccc(Cl)s1 [compound 26] |  |  | > 200
23 | O=C(OCc1cc(Cl)cc(Cl)c1)c1ccc(Br)s1 [compound 27] |  |  | > 200
24 | O=C(OCc1cc(Cl)cc(Cl)c1)c1cc(Br)c(Br)s1 [compound 28] |  | > 100 | > 200

Row | SMILES | survival of the S. aureus-infected silkworms (S. aureus MSSA1; S. aureus-infected silkworms) | ED50 (S. aureus MSSA1) [mg/kg] | MIC (S. aureus MRSA4) [µg/mL]
25 | O=C(OCc1cc(Cl)cc(Cl)c1)c1cc([N+](=O)[O-])n[nH]1 [compound 30] |  | > 210 | 1.6 (≈ 5.06 µM)
26 | Cc1ccc(C(=O)OCc2cc(Cl)cc(Cl)c2)s1 [compound 31] |  |  | > 200
27 | O=C(OCc1cc(Cl)cc(Cl)c1)c1cccc([N+](=O)[O-])n1 [compound 33] |  |  | > 400
28 | CC(=O)c1ccc(C(=O)OCc2cc(Cl)cc(Cl)c2)s1 [compound 34] |  |  | > 400
29 | O=C(OCc1cc(Cl)cc(Cl)c1)c1csc([N+](=O)[O-])c1 [compound 36] |  |  | > 400
30 | O=C(OCc1ccc(Cl)cc1Cl)c1ccc([N+](=O)[O-])s1 [compound 39] |  | 28 | 3.1 (≈ 9.33 µM)
31 | CC(OC(=O)c1ccc([N+](=O)[O-])s1)c1ccc(Cl)cc1Cl (centres unmarked) [compound 40] |  | > 160 | 1.6 (≈ 4.62 µM)
32 | O=C(OCc1c(Cl)cc(Cl)cc1Cl)c1ccc([N+](=O)[O-])s1 [compound 41] |  | 32 | 1.6 (≈ 4.36 µM)
33 | O=C(OCc1c(Cl)cccc1Cl)c1ccc([N+](=O)[O-])s1 [compound 42] |  | > 180 | 3.1 (≈ 9.33 µM)
34 | O=C(OCc1cc(Cl)ccc1Cl)c1ccc([N+](=O)[O-])s1 [compound 43] |  | > 180 | 3.1 (≈ 9.33 µM)
35 | O=C(OCc1c(F)cccc1Cl)c1ccc([N+](=O)[O-])s1 [compound 44] |  | > 180 | 6.3 (≈ 20 µM)
36 | Cc1ccc(Cl)c(COC(=O)c2ccc([N+](=O)[O-])s2)c1F [compound 45] |  | 82 | 1.6 (≈ 4.85 µM)
37 | O=C(OCc1cc(F)cc(F)c1)c1ccc([N+](=O)[O-])s1 [compound 46] |  | 81 | 3.1 (≈ 10.4 µM)
38 | Cc1ccc(COC(=O)c2ccc([N+](=O)[O-])s2)cc1 [compound 47] |  | 33 | 3.1 (≈ 11.2 µM)
39 | O=C(OCc1ccc(Cl)cc1)c1ccc([N+](=O)[O-])s1 [compound 48] |  | 58 | 3.1 (≈ 10.4 µM)
40 | COc1cc(COC(=O)c2ccc([N+](=O)[O-])s2)cc(OC)c1 [compound 49] |  |  | > 400
41 | O=C(OCc1cc2c(cc1Cl)OCO2)c1ccc([N+](=O)[O-])s1 [compound 50] |  | > 240 | 3.1 (≈ 9.07 µM)
42 | CS(=O)(=O)c1ccc(COC(=O)c2ccc([N+](=O)[O-])s2)cc1 [compound 51] |  |  | > 400
43 | O=C(NCc1cc(Cl)cc(Cl)c1)c1ccc([N+](=O)[O-])s1 [compound 52] |  | > 190 | 25 (≈ 75.5 µM)
44 | Cc1cc(C)cc(COC(=O)c2ccc([N+](=O)[O-])s2)c1 [compound 53] |  | > 210 | 6.3 (≈ 21.6 µM)
45 | CSc1ccc(COC(=O)c2ccc([N+](=O)[O-])s2)cc1 [compound 54] |  | 43 | 6.3 (≈ 20.4 µM)
46 | CN(C)c1cccc(COC(=O)c2ccc([N+](=O)[O-])s2)c1 [compound 55] |  |  | 25 (≈ 81.6 µM)
47 | O=C(OCc1ccc(OC(F)(F)F)cc1)c1ccc([N+](=O)[O-])s1 [compound 57] |  |  | 6.3 (≈ 18.1 µM)
